# Target: T1, human kidney glutaminase (Homo sapiens, UniProt O94925)
# T1 construct: made in house; host or cells: SF9 insect cells (alternatively HEK human kidney cells); cell lysate
# T1 sequence (O94925 55-669): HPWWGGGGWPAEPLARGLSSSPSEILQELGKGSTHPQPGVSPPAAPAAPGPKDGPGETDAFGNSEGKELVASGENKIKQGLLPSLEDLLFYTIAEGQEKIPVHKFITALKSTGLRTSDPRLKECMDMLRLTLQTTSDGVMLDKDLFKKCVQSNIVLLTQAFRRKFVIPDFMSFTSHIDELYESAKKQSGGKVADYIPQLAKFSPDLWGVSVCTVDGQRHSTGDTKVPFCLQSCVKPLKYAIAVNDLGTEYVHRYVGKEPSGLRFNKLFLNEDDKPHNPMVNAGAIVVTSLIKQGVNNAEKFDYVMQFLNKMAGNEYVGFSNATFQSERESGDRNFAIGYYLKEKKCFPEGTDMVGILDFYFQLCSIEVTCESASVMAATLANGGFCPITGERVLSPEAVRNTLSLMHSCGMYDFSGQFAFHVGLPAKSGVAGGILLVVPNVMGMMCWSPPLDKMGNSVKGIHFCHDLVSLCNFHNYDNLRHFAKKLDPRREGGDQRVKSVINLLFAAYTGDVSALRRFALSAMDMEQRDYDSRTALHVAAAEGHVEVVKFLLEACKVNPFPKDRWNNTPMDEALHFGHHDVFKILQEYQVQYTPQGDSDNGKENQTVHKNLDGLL
# Assay: Glutaminase inhibition: cell free assay
# Format: biochemical
# Conditions: not given
# Protocol: Compounds of formula I were tested for inhibition of human kidney glutaminase as described in Example 2.
# Glutaminase Inhibition: Cell Free Assay
# Glutaminase gene-transfected SF9 cells were collected in a 50-mL polypropylene conical tube by centrifugation at 500×g for 10 min (Eppendorf Centrifuge 5810R, F34-6-38 rotor). The supernatant was discarded, and the cell pellet was stored at −80° C. For preparation of the lysate, the cells were thawed on ice and resuspended by pipetting in 0.8 mL cold lysis buffer with 0.5 mM 4-(2-aminoethyl)- benzenesulfonyl fluoride (AEBSF), a serine protease inhibitor. The suspension was stored in ice for 20 min, then subjected to two freeze-thaw cycles (liquid nitrogen followed by a room temperature water bath).
# The volume of the cell homogenate was measured, and 1/3 volume of 1 M sucrose was added, to give a final concentration of 0.25 M sucrose. Aliquots 100 μL in volume were placed in 1.5 mL microtubes and stored at −80° C.
# Alternatively, HEK (human kidney) cells were used. The medium was removed by aspiration, 5 mL PBS/1 mM EDTA was added, and the culture was incubate for 3 min to allow cells to detach. The cells were collected in a 50-mL conical tube using Eppendorf Centrifuge 5810R, F34-6-38 rotor, and spun at 200×g for 5 min. The supernatant was discarded, and the cell pellet was resuspended pipetting (approximately 0.12 g wet weight) in 0.3 mL lysis buffer with 0.5 mM AEBSF. The tube was left in ice for 20 min. […] subjected to two freeze-thaw cycles as described above. Aliquots 100 μL in volume were placed in 1.5 mL microtubes and stored at −80° C.
# The activity of the enzyme was determined colorimetrically. One unit of enzyme activity is defined as the amount of enzyme required to generate net OD 540nm=0.6 in a total reaction volume of 220 μL in one hour at room temperature.
# Assay plates were prepared containing 2 μL test compound in DMSO/well. The enzyme was diluted to 1 unit (liver) or 0.8 unit (kidney)/100 μL in glutaminase assay buffer, and 100 μl diluted enzyme was added to each well of the assay plate by Multidrop (Labsystems). The contents were mixed by shaking at full speed for 1 min on TiterMix 100 (Brinkmann). The plates were preincubated at room temperature (RT) for 20 min to allow binding of test compounds to glutaminase, and 50 μL glutamine solution (7 mM in assay buffer) was added to each well by Multidrop. The contents were shaken at full speed for 30 sec on TiterMix 100 (Brinkmann), and the plates were then incubated at RT for 60 min (liver) or 90 min (kidney). To stop the reactions, 20 μL HCl (0.3 N) was added to each well by Multidrop and mixed immediately by shaking for 30 sec on TiterMix 100.
# For quantification, glutamate (formed by glutaminase-catalyzed hydrolysis of glutamine) is oxidized to 2-oxoglutarate by a second enzyme, glutamate dehydrogenase (GDH), with the concomitant production of the reduced form of nicotinamide adenine dinucleotide (NADH). Reduction of nitro blue tetrazolium (NBT) in the assay solution by NADH, catalyzed by phenazine methosulphate (PMS), results in the formation of a blue-purple formazan. The absorption of formazan at 540 nm is linearly proportional to the concentration of glutamate up to 200 μM.
# NBT/GDH reagent (50 μl) was added to each well by Multidrop and mixed by shaking for 30 sec on TiterMix 100, and the plates were incubated at RT for 20 min to allow color formation by the GDH reaction. Glutamate concentration was determined from formazan concentration as determined by reading OD540 nm on a SpectraMax 340.
row,Compound,IC50 [nM]
1,O=C(Nc1nnc(CCSCCc2nnc(NC(=O)c3ccco3)s2)s1)c1ccco1 [SNX-1836],1120
2,COc1ccc(C(=O)Nc2nnc(CCSCCc3nnc(NC(=O)c4ccc(OC)cc4)s3)s2)cc1 [SNX-1832],460
3,COc1ccccc1C(=O)Nc1nnc(CCSCCc2nnc(NC(=O)c3ccccc3OC)s2)s1 [SNX-1855],4900
4,Cc1cccc(C(=O)Nc2nnc(CCSCCc3nnc(NC(=O)c4cccc(C)c4)s3)s2)c1 [SNX-1831],1130
5,CCOC(=O)Nc1nnc(CCSCCc2nnc(NC(=O)OCC)s2)s1 [SNX-1852],1780
6,O=C(Nc1nnc(CCSCCc2nnc(NC(=O)c3cccs3)s2)s1)c1cccs1 [SNX-1837],390
7,O=C(Nc1nnc(CCSCCc2nnc(NC(=O)c3ccccc3)s2)s1)c1ccccc1 [SNX-1830],1060
8,CC(C)(C)C(=O)Nc1nnc(CCSCCc2nnc(NC(=O)C(C)(C)C)s2)s1 [SNX-1851],1650

# Test system: isolated neurons
# Assay: not given
# Conditions: Dugan et al., 1995; read-out: IC50 for toxicity on isolated neurons; cited from earlier work
row,Compound,IC50 [nM]
1,N[C@@H](CCC(=O)O)C(=O)O [glutamate],5000 to 10000

# Test system: microglia (BV-2) cells
# Assay: Inhibition of microglial glutamate secretion
# Format: cell-based
# Conditions: not given
# Protocol: As described in Wood, glutamate efflux from microglia is dependent on the presence of added external glutamine. […] Therefore, the concentration of glutamate in the culture medium can be used directly as a measure of glutamate production by these cells.
# In assaying the invention compounds, microglia (BV-2) cells were cultured using standard methods, as described in Example 4. On the day of the experiment, cells were incubated in glutamine free medium for 1 to 1.5 hours, then glutamine and test compounds, dissolved in glutamine free medium, were added. Aliquots were removed at 2 h and 4 h for glutamate analysis.
# Inhibition of Microglial Glutamate Secretion
# BV-2 cells were cultured in 24 well plates using Dulbeccos minimal essential medium containing 10% heat inactivated fetal bovine serum, and grown to 70-80% confluency before use. On the day of the experiment, cells were placed in glutamine free medium for 1 to 1.5 hours. […] This solution was used to replace one half of the 0.5 mL culture medium volume at the end of the glutamine free incubation. Aliquots of 10 μL medium were removed at 2 h and 4 h and placed in 96 well microtiter plates with 90 μL DMF/water (1:9) for glutamate analysis.
row,Compound,Glutamine dependent glutamate efflux from microglia
1,"[N-]=[N+]=CC(=O)CC[C@H](N)C(=O)O [DON, 6-diazo-5-oxo-L-norleucine, reference compound]",inhibited

# From patent US6451828B1, “Selective inhibition of glutaminase by bis-thiadiazoles” (priority 2000, dated 2002)
